Values joined by “and” are separate entries in the source; they are usually repeats but may differ in a detail not shown here. Equal entries are not always repeated. “Also recorded” adds a separate entry of the source.
Legend:
[1] = system: Mice with Neural Compression; experiment: von Frey fiber and camel hair brush testing for mechanical allodynia in mice with collagen placed by the posterior tibial nerve; assay type: in vivo; conditions: for Average # Paw Withdrawals: of 10 stimulations, n=10 mice
Experimental: Biocompatible collagen was prepared for use in the present study. The collagen source was dry gelatin that was prepared using sterile techniques. The dry collagen was measured to 2.5 grams and mixed with 7.5 cc of sterile normal saline. The mixture was heated for 30 seconds in a microwave on 80% power, The mixture was kept soft in warm water (approximately 100 to 110 degrees).
The consistency of the resulting warm collagen was such that it was able to pass through a 23 gauge needle. Humidity and other factors such as temperature can affect the consistency of the substance. 1-cc syringes were used for injection of 0.2 to 0.25 cc of collagen. For the injection, 23 gauge 1″ standard luer lock hypodermic needles were used. The needles were very slightly dulled with a metal file at the tip and edges using sterile technique. The needles were angled at the midpoint with a bevel tip up. The angle was between 30 and 45 degrees, but any angle that allows for easy placement of the injected substance could be used. The needles were then attached to the collagen-filled one cc syringes. The syringes were kept in a warm water bath (100 to 110° F.) to maintain proper gel consistency.
The mice were lightly anesthetized with 1.5 to 2% isoflurane. The mice were then stabilized and aligned such that the left posterior leg was in view. The external anatomic landmarks of the posterior popliteal area were identified. The internal anatomy of this area including the posterior tibial nerve with its artery was mentally visualized with kinesthetic techniques. Kinesthetic techniques are methods that use the kinesthetic sense or the integration of the senses by which movement, mass, turgor, shape, resistance, elasticity, temperature, spatial relationships and position are commonly perceived. It also refers to the integrated use of multiple senses such as touch, proprioception, vision, and hearing. After location of the site for placement of the gel, the needle and syringe were then removed from the warm water bath. The distal portion of the needle was held loosely parallel to the tibia. The needle was allowed to gently penetrate through the dermis by pulling the skin taut over the popliteal fossa. With careful avoidance of tissue resistance, the needle tip, bevel up, was gently slipped beneath the fascial edge of the soleus muscle by the tibial nerve and artery into the deep posterior fascial compartment of the posterior tibial neurovascular tunnel, which is the neurovascular tunnel for the posterior tibial nerve and its proximal branches. When the tip of the needle was at the mid soleus muscle belly, the collagen mixture was slowly injected into the posterior tibial tunnel. The needle was removed and the animals allowed to recover from the anesthetic. All animals were normally moving freely within 20 minutes of anesthesia withdrawal.
Two days after placement of the collagen gel around the nerve, von Frey testing was again performed. Von Frey testing continued for 49 days. […]

[2] = system: rat pain model variants; experiment: Analgesic effect in rat neurogenic pain model variants (overall statement); assay type: in vivo, Sprague Dawley rats
Experimental: (§1) The methods of preparation and testing were similar for all the variant pain models described in this example. Male Sprague Dawley rats initially weighing between 150 and 175 grams were housed singly. Baseline behaviors to stimulations of the paw on which the procedure was to be performed were recorded over several sessions after accommodation of 3-4 days, and the results were averaged and used as the baseline control data. The pain behaviors studied were static mechanical allodynia (e.g., light touch stimulation with von Frey fibers 4.56, 4.73, 4.93, and/or 5.07), dynamic mechanical allodynia (e.g., stimulation with moving camel hair brush), and/or mechanical hyperalgesia (e.g., pinprick stimulation).
(§2) After the baseline control data was collected, the specified procedure with a gel was performed near the chosen nerve of each variant group (see Tables 2-6 and 8-10), then the rats were tested post procedurally and intermittently for up to 77 days for behavioral changes (see Tables 2-6 and 8-11) and for their responses to substances with analgesic properties (see Tables 7 and 12).
(§3) The stimuli used to elicit pain behavior were the von Frey fibers, camel hair brush and pinprick, with 6 stimulations of each stimulus. Each variant pain model had the same sequence of stimuli with the positive responses averaged and a student T-test performed for the significance of the post procedural responses as compared to the baseline control data (see Tables 2-6 and 11); and for the post-analgesic responses as compared to the pre-analgesic behavioral data (see Tables 7 and 12).
(§4) The tunnels identified by the above studies were then used for the placement of the biocompatible gels by the chosen peripheral nerves. The gelatinous or viscous substances (i.e., the gels) placed by the peripheral nerves or nerve roots contained collagen (e.g., AVITENE® and gelatin) or hydrogels. The “collagen gel” used in the present study was composed of 0.8 grams of collagen as AVITENE® (microfibrillar collagen hemostat flour, Davol Inc., Cranston, R.I. 02920) and 0.7 grams of collagen as gelatin (Knox gelatin, Kraft Foods, Northfield, Ill. 60093) mixed with 14 cc of normal saline until homogenous. Then the collagen mixture was placed in a PYREX® bowl resting in a paper bowl and covered with a ceramic saucer, then heated for 20 seconds at full power in a microwave. The resulting viscous mixture was kept fluid in a warm water bath at 100-110° F., until used for the placement procedure. The wound hydrogels used in the present study were two types: one contains alginate (SAF-Gel® from ConvaTec of E. R. Squibb & Sons, Princeton, N.J.) and the other contains acemannan from Aloe vera L. (Carrasyn®V from Carrington Laboratories, Irving, Tex.). […] Such hydrogels are used in the care of open dermal wounds as well as in first and second degree burns since they provide a closed moist environment for wound healing.
(§5) The rats were anesthesized with 1.5% to 2% isoflurane for the percutaneous kinesthetic placement of the above “gels” by the specified nerves. Using an angled 23 gauge thin wall 1″ needle, approximately 0.1 cc-0.2 cc of gel was placed percutaneously with kinesthetic technique in the anatomically defined fascial tunnels of the chosen peripheral nerves as described below.
(§6) The doses were given intraperitoneally (I.P.) and behavioral stimulus testing began 40-80 minutes after the dose. The student's t-test (p<0.05) was performed for determining the significance of changes in behaviors associated with pain after the analgesic was administered.

[3] = system: rat pain model variants; assay type: in vivo, Sprague Dawley rats; conditions: Gabapentin 50 mg/kg (IP), n=12 rats
Experimental: Male Sprague Dawley rats initially weighing between 150 and 175 grams were housed singly. […] The pain behaviors studied were static mechanical allodynia (e.g., light touch stimulation with von Frey fibers 4.56, 4.73, 4.93, and/or 5.07), dynamic mechanical allodynia (e.g., stimulation with moving camel hair brush), and/or mechanical hyperalgesia (e.g., pinprick stimulation).
as §2
The stimuli used to elicit pain behavior were the von Frey fibers, camel hair brush and pinprick, with 6 stimulations of each stimulus.
as §4, §5, §6

[4] = system: rat pain model variants; experiment: Dynamic mechanical allodynia (camel hair brush) in rat pain model variants; assay type: in vivo, Sprague Dawley rats; conditions: Gabapentin 50 mg/kg (IP); n=12 rats; Pre Avg 3.25; p=9.5E-4
Experimental: as §1, §2, §3
The tunnels identified by the above studies were then used for the placement of the biocompatible gels by the chosen peripheral nerves. The gelatinous or viscous substances (i.e., the gels) placed by the peripheral nerves or nerve roots contained collagen (e.g., AVITENE® and gelatin) or hydrogels. […]

[5] = system: rat pain model variants; experiment: Mechanical hyperalgesia (pinprick) in rat pain model variants; assay type: in vivo, Sprague Dawley rats; conditions: for Pinprick # STIMULATIONS POST-ANALGESIC: of 6
Experimental: as §1, §2, §3, §4, §5, §6

[6] = system: open surgical rat model for CRPS I; conditions: prior art surgical model, Reyna et al. 1999; cited from earlier work

SMILES | Average # Paw Withdrawals ([1]; gabapentin 25 mg/kg IP, post procedure day 58 (9.14 before dose)) | Average # Paw Withdrawals ([1]; gabapentin 40 mg/kg IP, post procedure day 65 (9.19 before dose)) | Analgesic response (mechanical allodynia) ([1]; gabapentin 25 or 40 mg/kg IP) | analgesic effect (significance) ([2]; gabapentin 50 mg/kg IP, Table 12, within 40-80 minutes) | analgesic effect (significance) ([2]; gabapentin 50 mg/kg IP, Table 12, within 40-80 minutes, listed as Gabapentin) | Post Avg, Average Positive stimulations out of 6 total, Stim A vF 4.56 ([3]; Pre Avg 2.0, p=8.5E-5) | Post Avg, Average Positive stimulations out of 6 total, Stim C vF 5.07 ([3]; Pre Avg 2.42, p=4.4E-4) | Post Avg, Average Positive stimulations out of 6 total, Stim B vF 4.93 ([3]; Pre Avg 2.58, p=5.8E-5) | Post Avg, Average Positive stimulations out of 6 total, Stim S Brush [4] | Post Avg, Average Positive stimulations out of 6 total, Stim PP Pin Prick ([5]; Gabapentin 50 mg/kg (IP), n=12 rats, Pre Avg 5.08, p=2.6E-5) | analgesic response [6] | analgesic effect (significance) ([2]; ketorolac 10% 0.1 cc IP, Table 7) | Pinprick # STIMULATIONS POST-ANALGESIC ([5]; Ketorolac 10% 0.1 cc IP, 1 rat peroneal n. with Avitene collagen, pre 6) | Pinprick # STIMULATIONS POST-ANALGESIC ([5]; Ketorolac 10% 0.1 cc IP, 1 rat tibial n. with Acemannan hydrogel, pre 6) | Pinprick # STIMULATIONS POST-ANALGESIC ([5]; Ketorolac 10% 0.1 cc IP, 1 rat tibial n. with Alginate hydrogel, pre 6) | Pinprick # STIMULATIONS POST-ANALGESIC ([5]; Ketorolac 10% 0.1 cc IP, single rats sciatic n. with Alginate hydrogel (two rats, pre 6 and 6)) | Pinprick # STIMULATIONS POST-ANALGESIC, Total ([5]; Ketorolac 10% 0.1 cc IP, total of 5 rats, pre total 30, pre vs post p=3.7E-1)
NCC1(CC(=O)O)CCCCC1 [gabapentin] | 6.86 | 5.81 | Analgesic responses were shown | significant analgesic effects | significant analgesic effect | 0.25 | 0.75 | 0.5 | 1.25 | 2.25 | exhibited an analgesic response | – | – | – | – | – | –
O=C(c1ccccc1)c1ccc2n1CCC2C(=O)O (centres unmarked) [Ketorolac, ketorolac] | – | – | – | – | – | – | – | – | – | – | – | no significant analgesic effect; also recorded: no significant analgesic properties | 6 | 6 | 6 | 5 and 6 | 29

Reference: patent publication US7388124B2 (priority 2001, dated 2008)
